From patent US9067911B2, “Piperidine derivatives” (Hoffmann-La Roche Inc., priority 2009, dated 2015)
Counter-ions that a name gives are not always drawn.

Biological target: T1, mGlyT-1b (Mus musculus, UniProt P28571)
T1 construct: host or cells: Flp-in-CHO
T1 sequence (P28571 1-651 isoform P28571-2): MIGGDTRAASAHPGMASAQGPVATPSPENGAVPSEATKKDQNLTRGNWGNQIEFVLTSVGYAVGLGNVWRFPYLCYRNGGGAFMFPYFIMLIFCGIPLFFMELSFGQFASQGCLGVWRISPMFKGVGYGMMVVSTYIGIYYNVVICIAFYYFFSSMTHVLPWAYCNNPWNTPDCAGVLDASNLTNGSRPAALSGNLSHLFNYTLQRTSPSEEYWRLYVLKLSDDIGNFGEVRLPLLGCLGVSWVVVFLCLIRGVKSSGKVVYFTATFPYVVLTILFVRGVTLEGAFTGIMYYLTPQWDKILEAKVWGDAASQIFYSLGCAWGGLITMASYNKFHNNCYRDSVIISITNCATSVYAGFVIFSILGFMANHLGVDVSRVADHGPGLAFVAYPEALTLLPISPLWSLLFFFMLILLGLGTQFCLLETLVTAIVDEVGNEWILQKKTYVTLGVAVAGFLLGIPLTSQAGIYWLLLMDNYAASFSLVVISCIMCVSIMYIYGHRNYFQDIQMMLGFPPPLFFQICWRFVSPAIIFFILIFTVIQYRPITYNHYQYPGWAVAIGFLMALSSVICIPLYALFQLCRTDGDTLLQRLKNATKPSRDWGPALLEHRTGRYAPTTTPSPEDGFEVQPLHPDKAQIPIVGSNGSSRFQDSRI
Assay: Glycine uptake inhibition assay (mGlyT-1b)
Assay type: cell-based
Conditions: [3H]-glycine uptake, Flp-in-CHO cells stably transfected with mGlyT1b cDNA, 20 min preincubation at 22° C.
Method: Nutrient mixture F-12 (Gibco Life-technologies), fetal bovine serum (FBS) 5%, (Gibco life technologies), Penicillin/Streptomycin 1% (Gibco life technologies), Hygromycin 0.6 mg/ml (Gibco life technologies), Glutamine 1 mM Gibco life technologies)
150 mM NaCl, 10 mM Hepes-Tris, pH 7.4, 1 mM CaCl2, 2.5 mM KCl, 2.5 mM MgSO4, 10 mM (+) D-glucose.
Flp-in™-CHO (Invitrogen Cat n° R758-07) cells stably transfected with mGlyT1b cDNA.
Glycine Uptake Inhibition Assay (mGlyT-1b)
On day 1 mammalian cells, (Flp-in™-CHO), transfected with mGlyT-1b cDNA, were plated at the density of 40,000 cells/well in complete F-12 medium, without hygromycin in 96-well culture plates. On day 2, the medium was aspirated and the cells were washed twice with uptake buffer (UB). The cells were then incubated for 20 min at 22° C. with either (i) no potential competitor, (ii) 10 mM non-radioactive glycine, (iii) a concentration of a potential inhibitor. A range of concentrations of the potential inhibitor was used to generate data for calculating the concentration of inhibitor resulting in 50% of the effect (e.g. IC50, the concentration of the competitor inhibiting glycine uptake of 50%). A solution was then immediately added containing [^3H]-glycine 60 nM (11-16 Ci/mmol) and 25 μM non-radioactive glycine. The plates were incubated with gentle shaking and the reaction was stopped by aspiration of the mixture and washing (three times) with ice-cold UB. The cells were lysed with scintillation liquid, shaken 3 hours and the radioactivity in the cells was counted using a scintillation counter.

| Compound | IC50 |
| --- | --- |
| CCc1cc(C(F)(F)F)ccc1C(=O)N[C@@]1(c2ccccc2)C[C@H](OC)CN(C)C1 (racemic) [Example 77, 2-Ethyl-N-((3RS,5SR)-5-methoxy-1-methyl-3-phenyl-piperidin-3-yl)-4-trifluoromethyl-benzamide] | 88.1 nM |
| COc1ccc(C2(NC(=O)c3c(OC)cc(C(F)(F)F)cc3SC)CCCN(C)C2)cc1 (racemic) [Example 46, rac-2-Methoxy-N-[3-(4-methoxy-phenyl)-1-methyl-piperidin-3-yl]-6-methylsulfanyl-4-trifluoromethyl-benzamide] | 169 nM |
| COc1cc(C(F)(F)F)cc(SC)c1C(=O)NC1(c2ccc(F)cc2F)CCCN(C)C1 (racemic) [Example 67, rac-N-[3-(2,4-Difluoro-phenyl)-1-methyl-piperidin-3-yl]-2-methoxy-6-methylsulfanyl-4-trifluoromethyl-benzamide] | 129 nM |
| COc1cc(C(F)(F)F)cc(SC)c1C(=O)NC1(c2cc(F)cc(F)c2)CCCN(C)C1 (racemic) [Example 98, rac-N-[3-(3,5-Difluoro-phenyl)-1-methyl-piperidin-3-yl]-2-methoxy-6-methylsulfanyl-4-trifluoromethyl-benzamide] | 62.2 nM |
| CN1CCC[C@](NC(=O)c2ccc(C(F)(F)F)cc2C2CC2)(c2ccccc2)C1 (stereo in doubt) [Example 56, 2-Cyclopropyl-N-((S)-1-methyl-3-phenyl-piperidin-3-yl)-4-trifluoromethyl-benzamide hydrochloride] | 162 nM |
| CN1CCCC(NC(=O)c2c(F)cc(C(F)(F)F)cc2C(F)(F)F)(c2ccccc2)C1 (racemic) [Example 5, rac-2-Fluoro-N-(1-methyl-3-phenyl-piperidin-3-yl)-4,6-bis-trifluoromethyl-benzamide] | 107 nM |
| COc1cc(C(F)(F)F)cc(SC)c1C(=O)NC1(c2ccccc2)CCCN(C(C)C)C1 (racemic) [Example 55, rac-N-(1-Isopropyl-3-phenyl-piperidin-3-yl)-2-methoxy-6-methylsulfanyl-4-trifluoromethyl-benzamide; hydrochloride] | 77.7 nM |
| CN1CCCC(NC(=O)c2ccc(C(F)(F)F)cc2OC(F)F)(c2ccccc2)C1 (racemic) [Example 39, rac-2-Difluoromethoxy-N-(1-methyl-3-phenyl-piperidin-3-yl)-4-trifluoromethyl-benzamide] | 184 nM |
| COc1cc(C(F)(F)F)cc(SC)c1C(=O)NC1(c2ccncc2)CCCN(C)C1 (racemic) [Example 71, rac-2-Methoxy-6-methylsulfanyl-N-(1-methyl-1,4,5,6-tetrahydro-2H-[3,4′]bipyridinyl-3-yl)-4-trifluoromethyl-benzamide] | 55.9 nM |
| COc1cc(C(F)(F)F)cc(SC)c1C(=O)NC1(C2CCCCC2)CCCN(C)C1 (racemic) [Example 58, rac-N-(3-Cyclohexyl-1-methyl-piperidin-3-yl)-2-methoxy-6-methylsulfanyl-4-trifluoromethyl-benzamide] | 156 nM |
| CC(C)c1cc(C(F)(F)F)ccc1C(=O)NC1(c2ccccc2)CCCN(C)C1 (racemic) [Example 70, rac-2-Isopropyl-N-(1-methyl-3-phenyl-piperidin-3-yl)-4-trifluoromethyl-benzamide hydrochloride] | 197 nM |
| COc1cccc(C2(NC(=O)c3c(OC)cc(C(F)(F)F)cc3SC)CCCN(C)C2)c1 (racemic) [Example 91, rac-2-Methoxy-N-[3-(3-methoxy-phenyl)-1-methyl-piperidin-3-yl]-6-methylsulfanyl-4-trifluoromethyl-benzamide] | 113 nM |
| COc1cc(C(F)(F)F)cc(SC)c1C(=O)NC1(c2ccc(F)c(F)c2)CCCN(C)C1 (racemic) [Example 95, rac-N-[3-(3,4-Difluoro-phenyl)-1-methyl-piperidin-3-yl]-2-methoxy-6-methylsulfanyl-4-trifluoromethyl-benzamide] | 51.5 nM |
| CCc1cc(C(F)(F)F)cc(C(F)(F)F)c1C(=O)NC1(c2ccccc2)CCCN(C)C1 (racemic) [Example 25, rac-2-Ethyl-N-(1-methyl-3-phenyl-piperidin-3-yl)-4,6-bis-trifluoromethyl-benzamide] | 126 nM |
| COc1cc(C(F)(F)F)cc(SC)c1C(=O)NC1(c2cc(F)ccc2F)CCCN(C)C1 (racemic) [Example 69, rac-N-[3-(2,5-Difluoro-phenyl)-1-methyl-piperidin-3-yl]-2-methoxy-6-methylsulfanyl-4-trifluoromethyl-benzamide] | 117 nM |
| COc1cc(C(F)(F)F)cc(SC)c1C(=O)NC1(c2cc(F)ccc2F)CCCN(C)C1 (single isomer, unassigned) [Example 113, N-[(R or S)-3-(2,5-Difluoro-phenyl)-1-methyl-piperidin-3-yl]-2-methoxy-6-methylsulfanyl-4-trifluoromethyl-benzamide] | 56.4 nM |

Stronger by IC50, values ahead:

| IC50 | Compound |
| --- | --- |
| 39.6 nM | COc1cc(C(F)(F)F)cc(SC)c1C(=O)NC1(c2cccc(Br)c2)CCCN(C)C1 (racemic) [Example 87, rac-N-[3-(3-Bromo-phenyl)-1-methyl-piperidin-3-yl]-2-methoxy-6-methylsulfanyl-4-trifluoromethyl-benzamide hydrochloride] |
| 36.6 nM | COc1cc(C(F)(F)F)cc(SC)c1C(=O)NC1(c2ccccc2)CN(C)CC(C)(C)C1 (racemic) [Example 99, rac-2-Methoxy-6-methylsulfanyl-4-trifluoromethyl-N-(1,5,5-trimethyl-3-phenyl-piperidin-3-yl)-benzamide hydrochloride] |
| 35.8 nM | COc1cc(C(F)(F)F)cc(SC)c1C(=O)NC1(c2ccccc2)CN(C)CC(C)(C)C1 (single isomer, unassigned) [Example 116, 2-Methoxy-6-methylsulfanyl-4-trifluoromethyl-N-((S or R)-1,5,5-trimethyl-3-phenyl-piperidin-3-yl)-benzamide] |
| 31.2 nM | CO[C@@H]1CN(C)C[C@](NC(=O)c2ccc(C(F)(F)F)cc2C2CC2)(c2ccccc2)C1 (racemic) [Example 126, 2-Cyclopropyl-N-((3R,5S) or (3S,5R)-5-methoxy-1-methyl-3-phenyl-piperidin-3-yl)-4-trifluoromethyl-benzamide] |
| 27.7 nM | COc1cc(C(F)(F)F)cc(SC)c1C(=O)NC1(c2ccc(Cl)cc2)CCCN(C)C1 (racemic) [Example 28, rac-N-[3-(4-Chloro-phenyl)-1-methyl-piperidin-3-yl]-2-methoxy-6-methylsulfanyl-4-trifluoromethyl-benzamide] |
| 26.2 nM | COc1cc(C(F)(F)F)cc(SC)c1C(=O)NC1(c2ccc(F)cc2)CCCN(C)C1 (racemic) [Example 27, rac-N-[3-(4-Fluoro-phenyl)-1-methyl-piperidin-3-yl]-2-methoxy-6-methylsulfanyl-4-trifluoromethyl-benzamide] |
| 22.7 nM | CN1CCC[C@@](NC(=O)c2ccc(C(F)(F)F)cc2C2CC2)(c2ccccc2)C1 (stereo in doubt) [Example 57, 2-Cyclopropyl-N-((R)-1-methyl-3-phenyl-piperidin-3-yl)-4-trifluoromethyl-benzamide hydrochloride] |
| 13.9 nM | COc1cc(C(F)(F)F)cc(SC)c1C(=O)N[C@@]1(c2ccccc2)CC[C@@H](C)N(C)C1 (single isomer, unassigned) [Example 119, N-((3R,6R) or (3S,6S)-1,6-Dimethyl-3-phenyl-piperidin-3-yl)-2-methoxy-6-methylsulfanyl-4-trifluoromethyl-benzamide] |
